Assay results published in ChEMBL document CHEMBL4433245, “Discovery of GlyT2 Inhibitors Using Structure-Based Pharmacophore Screening and Selectivity Studies by FEP+ Calculations” (ACS Med Chem Lett, 2019).
pIC50: −log10 of the molar value.

Experiments:
[1] = target: Sodium- and chloride-dependent glycine transporter 1 (Mus musculus) (UniProt P28571); experiment: Inhibition of mouse GlyT1 expressed in porcine aorta […] cells assessed as reduction in [3H]-Glycine uptake incubated for 10 mins at pH 7.4 by scintillation spectroscopy relative to untreated control
[2] = target: Sodium- and chloride-dependent glycine transporter 1 (Mus musculus) (UniProt P28571); experiment: Inhibition of mouse GlyT1 expressed in porcine aorta […] cells assessed as reduction in [3H]-Glycine uptake incubated for 10 mins at pH 7.4 by scintillation spectroscopy

Chain of Sodium- and chloride-dependent glycine transporter 1 (Mus musculus) (P28571 whole entry, looked up): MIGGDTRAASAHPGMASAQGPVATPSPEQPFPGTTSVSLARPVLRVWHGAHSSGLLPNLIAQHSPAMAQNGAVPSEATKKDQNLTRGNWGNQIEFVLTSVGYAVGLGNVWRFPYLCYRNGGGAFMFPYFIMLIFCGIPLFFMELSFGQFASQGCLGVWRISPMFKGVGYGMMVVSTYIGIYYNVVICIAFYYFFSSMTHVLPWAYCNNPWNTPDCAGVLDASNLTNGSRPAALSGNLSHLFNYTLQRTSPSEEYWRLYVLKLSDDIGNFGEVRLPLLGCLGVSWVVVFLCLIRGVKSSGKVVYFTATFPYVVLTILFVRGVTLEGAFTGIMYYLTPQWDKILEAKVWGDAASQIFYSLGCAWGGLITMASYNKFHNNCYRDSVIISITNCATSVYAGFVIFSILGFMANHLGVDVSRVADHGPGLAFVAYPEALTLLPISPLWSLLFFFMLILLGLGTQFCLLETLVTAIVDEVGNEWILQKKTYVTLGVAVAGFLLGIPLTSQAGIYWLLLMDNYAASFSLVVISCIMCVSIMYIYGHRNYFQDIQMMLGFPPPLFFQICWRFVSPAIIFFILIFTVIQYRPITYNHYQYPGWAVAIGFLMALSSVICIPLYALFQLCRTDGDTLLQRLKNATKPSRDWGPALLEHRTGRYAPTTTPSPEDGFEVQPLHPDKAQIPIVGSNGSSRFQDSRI

Row | inhibition [1] [%] | pIC50 [2] | Compound
1 | 80 |  | CN(CC[C@@H](Oc1ccc(-c2ccccc2)cc1)c1ccc(F)cc1)CC(=O)O
2 |  | < 3.70 | O=C(O)CCSc1[nH]c(=O)nc2[nH]c(=O)[nH]c12
3 |  | < 3.70 | O=C(O)CCCCSc1ncnc2[nH]c(=O)[nH]c12
4 |  | < 3.70 | O=c1[nH]c2c(c(=O)[nH]1)CCN(Cc1ccccc1)C2
